# Laboratory results taken from ChEMBL document CHEMBL3259580, “New compounds from acid hydrolyzed products of the fruits of Momordica charantia L. and their inhibitory activity against protein tyrosine phosphatas 1B” (Eur J Med Chem, 2014).
# Key:
# [1] = target: T1, Tyrosine-protein phosphatase non-receptor type 1 (Homo sapiens) (UniProt P18031); assay: Inhibition of PTP1B (unknown origin) using para-nitro phenyl phosphate as substrate at 10 uM after 30 mins
# T1 sequence (whole entry): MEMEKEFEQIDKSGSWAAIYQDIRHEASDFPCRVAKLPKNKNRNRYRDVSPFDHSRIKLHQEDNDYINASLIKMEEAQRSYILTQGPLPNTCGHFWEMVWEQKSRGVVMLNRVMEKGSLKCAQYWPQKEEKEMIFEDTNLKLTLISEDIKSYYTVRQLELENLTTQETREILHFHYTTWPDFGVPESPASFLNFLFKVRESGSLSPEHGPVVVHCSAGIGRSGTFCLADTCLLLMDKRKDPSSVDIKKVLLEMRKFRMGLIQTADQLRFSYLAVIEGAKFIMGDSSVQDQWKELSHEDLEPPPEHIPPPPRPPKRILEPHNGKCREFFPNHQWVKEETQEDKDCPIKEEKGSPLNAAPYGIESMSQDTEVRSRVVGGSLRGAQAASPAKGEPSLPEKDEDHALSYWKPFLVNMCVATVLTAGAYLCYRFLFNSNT
# [2] = target: T1, Tyrosine-protein phosphatase non-receptor type 1 (Homo sapiens); assay: Inhibition of PTP1B (unknown origin) using para-nitro phenyl phosphate as substrate at 30 uM after 30 mins
# [3] = target: Tyrosine-protein phosphatase non-receptor type 1 (Homo sapiens) (UniProt P18031); assay: Inhibition of PTP1B (unknown origin) using para-nitro phenyl phosphate as substrate at 20 uM after 30 mins
molecule,measurement,setting,value
CO[C@H]1O[C@]23C=C[C@@H]4[C@@]1(CC[C@]1(C)[C@@H]([C@H](C)C[C@H](C=C(C)C)OC)CC[C@@]41C)[C@@H]2CC[C@H](O)C3(C)C,inhibition,[1],32%
same,inhibition,[2],62%
CO[C@@H]1O[C@@]23C=C[C@@H]4[C@]1(CC[C@@]1(C)[C@@H]([C@@H](C)C[C@H](C=C(C)C)OC)CC[C@]41C)[C@@H]2CC[C@H](O)C3(C)C,inhibition,[1],44%
same,inhibition,[2],62%
SODIUM ORTHOVANAD,inhibition,[3],44%
CO[C@@H]1O[C@]23C=C[C@@H]4[C@@]1(CC[C@]1(C)[C@@H]([C@H](C)C/C=C/C(C)(C)O)CC[C@@]41C)[C@@H]2CC[C@H](O)C3(C)C,inhibition,[1],-7%
C=C(C)/C=C/C[C@@H](C)[C@H]1CC[C@@]2(C)[C@@H]3C=C[C@@]45O[C@@H](O)[C@]3(CC[C@]12C)[C@@H]4CC[C@H](O)C5(C)C,inhibition,[1],44%
same,inhibition,[2],68%
CO[C@@H]1O[C@]23C=C[C@@H]4[C@@]1(CC[C@]1(C)[C@@H]([C@H](C)C/C=C/C(C)(C)OC)CC[C@@]41C)[C@@H]2CC[C@H](O)C3(C)C,inhibition,[1],22%
same,inhibition,[2],37%
CO[C@@H]1O[C@]23C=C[C@@H]4[C@@]1(CC[C@]1(C)[C@@H]([C@H](C)C[C@H](C=C(C)C)OC)CC[C@@]41C)[C@@H]2CC[C@H](O)C3(C)C,inhibition,[1],32%
same,inhibition,[2],40%
C=C(C)/C=C/C[C@@H](C)[C@H]1CC[C@@]2(C)[C@@H]3C=C[C@@]45O[C@@H](OC)[C@]3(CC[C@]12C)[C@@H]4CC[C@H](O)C5(C)C,inhibition,[1],41%
same,inhibition,[2],60%
C[C@H](C/C=C/C(C)(C)O)[C@H]1CC[C@@]2(C)[C@@H]3C=C[C@@]45OC[C@]3(CC[C@]12C)[C@@H]4CC[C@H](O)C5(C)C,inhibition,[1],30%
same,inhibition,[2],52%
CO[C@H]1O[C@@]23C=C[C@@H]4[C@]1(CC[C@@]1(C)[C@@H]([C@@H](C)C[C@H](C=C(C)C)OC)CC[C@]41C)[C@@H]2CC[C@H](O)C3(C)C,inhibition,[1],57%
same,inhibition,[2],77%
C[C@H](C/C=C/C(C)(C)O)[C@H]1CC[C@@]2(C)[C@@H]3[C@@H](O)C=C4[C@@H](CC[C@H](O)C4(C)C)[C@]3(C=O)CC[C@]12C,inhibition,[1],-5%
